As usually defined, the IC50 is the point on the concentration scale where inhibition reaches its midpoint.

Data on 20 molecules can be found in patent publication EP1333824B1, “TREATMENT OF SEXUAL DYSFUNCTION WITH BOMBESIN RECEPTOR ANTAGONISTS” (Warner-Lambert Company LLC, priority 2000, dated 2002).

Where only a bound is given, the exact number is not on record here.

In experiment [1] the target is T1, human GRP receptor (BB2) (Homo sapiens, UniProt P30550).
T1 construct: expressed in transfected cells
The experiment can be described thus: BB2 binding assay ([125I][Tyr4]bombesin, CHO-K1 cell membranes). Conditions: Table 7; N-terminal sulfonamide derivatives. As to the method:
In the following experiments, measurement of BB1 and BB2 binding was as follows. […] The final pellet was resuspended in assay buffer to a final cell concentration of 1.5 × 10^5/mL. […] Nonspecific binding was defined by 1µM bombesin. […] Radioactivity bound was determined using a gamma counter.
All competition data was analysed using nonlinear regression utilizing iterative curve-plotting procedures in Prism® (GraphPad Software Inc., San Diego, USA).

The subject of experiment [2] is Ovariectomised adult female Sprague Dawley rats. Description: Female rat sexual proceptivity test (time investigating male vs female stimulus). Type of experiment: in vivo. As to the method:
Ovariectomised adult female Sprague Dawley rats (180-200g, from Charles River) were housed in groups of 6 in a reversed lighting system of 12h light:dark (lights off 7.00-19.00h). Two weeks after ovariectomy they were used for sexual activity tests. The experiments started at least 5h into the dark period.
Tests were carried out in a circular arena of 90cm diameter, surrounded by a 30cm high wall. Two small cages with wire-mesh front (15x15cm) are fixed into the wall such that the front of the cage is «flush» with the wall and the 2 cages are opposite each other. They contained two stimuli animals: an intact sexually experienced male and a receptive female (ovariectomised, primed with 5µg oestradiol benzoate dissolved in corn oil and injected subcutaneously 48 hours before the test and with 0.5 mg of progesterone four hours before the test). Sexually naive test and control animals were used. Forty eight hours before the tests, both the test and control animals were primed with 5µg oestradiol benzoate. For animals used as positive controls, progesterone (0.5mg/0.1ml) was dissolved in corn oil and administered subcutaneously (s.c.), 4h before the test. Test and control animals were introduced one at a time for 10 minute periods into the arena. During the 10min test, the time that the test or positive control animal spent investigating each stimulus animal was noted. The arena was thoroughly cleaned between animals. The position of the male/female stimuli boxes was randomised between animals, in order to avoid place preference. The difference in the percentage of time spent investigating the male minus the female stimuli was calculated, out of the total time spent investigating stimuli animals. […]
Ovariectomised adult female Sprague Dawley rats (180-200g) were housed in groups of 5 in a reversed lighting system of 12h light:dark (lights off 5.00-17.00h). They were used for the experiments at least two weeks after ovariectomy. Forty eight hours before tests, the animals were primed with oestradiol benzoate (5µg/0.1ml in corn oil, s.c.). On day 1, progesterone (0.5mg/0.1ml, in corn oil, s.c.) was administered to one of the groups 4h before tests, as a positive control. […] The test lasted 10 minutes and was carried out as described before. The difference in the percentage of time spent investigating the male minus the female stimuli was calculated, out of the total time spent investigating stimuli animals. Animals were submitted to a test on day 1 and on day 15. […] On day 15 the test took place again, as described for day 1. […]

T1 sequence (P30550 whole entry): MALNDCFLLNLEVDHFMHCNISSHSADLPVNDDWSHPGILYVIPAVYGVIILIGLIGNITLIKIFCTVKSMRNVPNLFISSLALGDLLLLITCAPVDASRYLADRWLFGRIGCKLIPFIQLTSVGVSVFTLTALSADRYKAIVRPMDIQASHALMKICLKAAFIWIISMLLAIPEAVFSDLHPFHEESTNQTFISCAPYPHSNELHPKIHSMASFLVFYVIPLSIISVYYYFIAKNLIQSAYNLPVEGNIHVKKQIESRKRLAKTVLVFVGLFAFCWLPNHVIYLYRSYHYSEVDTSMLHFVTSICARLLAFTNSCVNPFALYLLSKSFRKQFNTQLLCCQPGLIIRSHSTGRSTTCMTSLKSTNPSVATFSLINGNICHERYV

`C[C@@](Cc1c[nH]c2ccccc12)(NS(=O)(=O)c1cccc(C#N)c1)C(=O)NCC1(c2ccccn2)CCCCC1` [Example 143, (S)-2-(3-Cyano-benzenesulfonylamino)-3-(1H-indol-3-yl)-2-methyl-N-(1-pyridin-2-yl-cyclohexylmethyl)-propionamide] had an IC50 in experiment [1] of more than 10 µM.

`Cc1nc(S(=O)(=O)N[C@@](C)(Cc2c[nH]c3ccccc23)C(=O)NCC2(c3ccccn3)CCCCC2)cn1C` [Example 144, (S)-2-(1,2-Dimethyl-1H-imidazole-4-sulfonylamino)-3-(1H-indol-3-yl)-2-methyl-N-(1-pyridin-2-yl-cyclohexylmethyl)-propionamide] gave an IC50 in experiment [1] of more than 10 µM.

Regarding `C[C@@](Cc1c[nH]c2ccccc12)(NS(=O)(=O)c1cccc2cccc([N+](=O)[O-])c12)C(=O)NCC1(c2ccccn2)CCCCC1` [Example 146, (S)-3-(1H-Indol-3-yl)-2-methyl-2-(8-nitro-naphthalene-1-sulfonylamino)-N-(1-pyridin-2-yl-cyclohexylmethyl)-propionamide], in experiment [1], the IC50 is more than 10 µM.

`C[C@@](Cc1c[nH]c2ccccc12)(NS(=O)(=O)c1cc([N+](=O)[O-])ccc1Cl)C(=O)NCC1(c2ccccn2)CCCCC1` [Example 147, (S)-2-(2-Chloro-5-nitro-benzenesulfonylamino)-3-(1H-indol-3-yl)-2-methyl-N-(1-pyridin-2-yl-cyclohexylmethyl)-propionamide]: in experiment [1], the “BB2 IC50” value is recorded as “Ia”.

Take `C[C@@](Cc1c[nH]c2ccccc12)(NS(=O)(=O)c1c(Cl)cc(Cl)cc1Cl)C(=O)NCC1(c2ccccn2)CCCCC1` [Example 148, (S)-3-(1H-Indol-3-yl)-2-methyl-N-(1-pyridin-2-yl-cyclohexylmethyl)-2-(2,4,6-trichloro-benzenesulfonylamino)-propionamide]: in experiment [1], the “BB2 IC50” value was “Ia”.

For the molecule `C[C@@](Cc1c[nH]c2ccccc12)(NS(=O)(=O)c1ccc(Cl)cc1[N+](=O)[O-])C(=O)NCC1(c2ccccn2)CCCCC1` [Example 149, (S)-2-(4-Chloro-2-nitro-benzenesulfonylamino)-3-(1H-indol-3-yl)-2-methyl-N-(1-pyridin-2-yl-cyclohexylmethyl)-propionamide], in experiment [1], the IC50 was more than 10 µM.

As to `C[C@@](Cc1c[nH]c2ccccc12)(NS(=O)(=O)c1ccc(S(=O)(=O)c2ccccc2)s1)C(=O)NCC1(c2ccccn2)CCCCC1` [Example 150, (S)-2-(5-Benzenesulfonyl-thiophene-2-sulfonylamino)-3-(1H-indol-3-yl)-2-methyl-N-(1-pyridin-2-yl-cyclohexylmethyl)-propionamide], the IC50 in experiment [1] is more than 10 µM.

In the case of `C[C@@](Cc1c[nH]c2ccccc12)(NS(=O)(=O)c1ccc(OC(F)(F)F)cc1)C(=O)NCC1(c2ccccn2)CCCCC1` [Example 151, (S)-3-(1H-Indol-3-yl)-2-methyl-N-(1-pyridin-2-yl-cyclohexylmethyl)-2-(4-trifluoromethoxy-benzenesulfonylamino)-propion amide], in experiment [1], the IC50 is more than 10 µM.

In turn, `COC(=O)c1ccccc1S(=O)(=O)N[C@@](C)(Cc1c[nH]c2ccccc12)C(=O)NCC1(c2ccccn2)CCCCC1` [Example 155, 2-{(S)-2-(1H-Indol-3-yl)-1-methyl-1-[(1-pyridin-2-yl-cyclohexylmethyl)-carbamoyl]-ethylsulfamoyl} -benzoic acid methyl ester] had an IC50 in experiment [1] of more than 10 µM.

`COc1cc(C)ccc1S(=O)(=O)N[C@@](C)(Cc1c[nH]c2ccccc12)C(=O)NCC1(c2ccccn2)CCCCC1` [Example 159, (S)-3-(1H-Indol-3-yl)-2-(2-methoxy-4-methyl-benzenesulfonylamino)-2-methyl-N-(1-pyridin-2-yl-cyclohexylmethyl)-propionamide] yielded an IC50 in experiment [1] of more than 10 µM.

In experiment [1], `C[C@@](Cc1c[nH]c2ccccc12)(NS(=O)(=O)c1ccc(-c2ccccn2)s1)C(=O)NCC1(c2ccccn2)CCCCC1` [Example 160, (S)-3-(1H-Indol-3-yl)-2-methyl-N-(1-pyridin-2-yl-cyclohexylmethyl)-2-(5-pyridin-2-yl-thiophene-2-sulfonylamino)-propionamide] had an IC50 of more than 10 µM.

With `C[C@@](Cc1c[nH]c2ccccc12)(NS(=O)(=O)c1cnc(Cl)c(Br)c1)C(=O)NCC1(c2ccccn2)CCCCC1` [Example 161, (S)-2-(5-Bromo-6-chloro-pyridine-3-sulfonylamino)-3-(1H-indol-3-yl)-2-methyl-N-(1-pyridin-2-yl-cyclohexylmethyl)-propionamide], in experiment [1], the IC50 is more than 10 µM.

In turn, `C[C@@](Cc1c[nH]c2ccccc12)(NS(=O)(=O)c1ccc([N+](=O)[O-])cc1[N+](=O)[O-])C(=O)NCC1(c2ccccn2)CCCCC1` [Example 162, (S)-2-(2,4-Dinitro-benzenesulfonylamino)-3-(1H-indol-3-yl)-2-methyl-N-(1-pyridin-2-yl-cyclohexylmethyl)-propionamide] showed an IC50 in experiment [1] of more than 10 µM.

For the molecule `C[C@@](Cc1c[nH]c2ccccc12)(NS(=O)(=O)c1ccc(S(C)(=O)=O)cc1)C(=O)NCC1(c2ccccn2)CCCCC1` [Example 163, (S)-3-(1H-Indol-3-yl)-2-(4-methanesulfonyl-benzenesulfonylamino)-2-methyl-N-(1-pyridin-2-yl-cyclohexylmethyl)-propionamide], the IC50 in experiment [1] is more than 10 µM.

In experiment [1], `CC(C)(C)c1ccc(S(=O)(=O)N[C@@](C)(Cc2c[nH]c3ccccc23)C(=O)NCC2(c3ccccn3)CCCCC2)cc1` [Example 164, (S)-2-(4-tert-Butyl-benzenesulfonylamino)-3-(1H-indol-3-yl)-2-methyl-N-(1-pyridin-2-yl-cyclohexylmethyl)-propionamide] had an IC50 of more than 10 µM.

Turning to `Cc1cc(S(=O)(=O)N[C@@](C)(Cc2c[nH]c3ccccc23)C(=O)NCC2(c3ccccn3)CCCCC2)c(Cl)cc1Cl` [Example 165, (S)-2-(2,4-Dichloro-5-methyl-benzenesulfonylamino)-3-(1H-indol-3-yl)-2-methyl-N-(1-pyridin-2-yl-cyclohexylmethyl)-propionamide], in experiment [1], the IC50 is more than 10 µM.

In turn, `C[C@@](Cc1c[nH]c2ccccc12)(NS(=O)(=O)c1ccc(Cl)c(C(F)(F)F)c1)C(=O)NCC1(c2ccccn2)CCCCC1` [Example 166, (S)-2-(Chloro-trifluoromethyl-benzenesulfonylamino)-3-(1H-indol-3-yl)-2-methyl-N-(1-pyridin-2-yl-cyclohexylmethyl)-propionamide] yielded a concentration for half-maximal inhibition (IC50) in experiment [1] of more than 10 µM.

In turn, `CCCCc1ccc(S(=O)(=O)N[C@@](C)(Cc2c[nH]c3ccccc23)C(=O)NCC2(c3ccccn3)CCCCC2)cc1` [Example 168, (S)-2-(4-Butyl-benzenesulfonylamino)-3-(1H-indol-3-yl)-2-methyl-N-(1-pyridin-2-yl-cyclohexylmethyl)-propionamide] yielded an IC50 in experiment [1] of more than 10 µM.

Take `CC(=O)[C@H]1CC[C@H]2[C@@H]3CCC4=CC(=O)CC[C@]4(C)[C@H]3CC[C@]12C` [progesterone, reference compound]: the “proceptivity, day 1” value in experiment [2] (Example 3, Compound (1) 15mg/kg i.p. 1h before test, progesterone 0.5mg/0.1ml s.c. 4h before, vs vehicle, P<0.01) is given as “stimulatory effect on proceptivity”. In addition, in experiment [2] (Example 5, progesterone 0.5mg/0.1ml s.c. 4h before test, compared to vehicle group), the “percentage of time spent investigating the male stimulus” value was “increased the percentage of time spent investigating the male stimulus”.

As to neuromedin B [NMB, reference compound], the “proceptivity in progesterone-treated rats” value in experiment [2] (Example 5, NMB 100ng i.c.v. 10min before tests, P<0.001 vs progesterone) was “significantly reduced proceptivity”.
